Reference: patent US20230021483A1, “[…] […] METHOD AND CLASSIFICATION OF PHARMACEUTICAL COMPONENTS BY USING TRANSCRIPTOMES” (National Institutes of Biomedical Innovation, Health and …, priority 2016, published 2023)

What was measured:
liver (LV) = experiment: Whole organ transcriptome (GeneChip microarray) of liver 6 h after adjuvant administration: sDEGs, hierarchical clustering; format: in vivo, C57BL/6 mice; settings: for Number of gene probes with statistically significant changes (sDEGs), LV, Down / Number of gene probes with statistically significant changes (sDEGs), LV, Up: liver, 6 h after adjuvant; for Number of gene probes with statistically significant changes (sDEGs), LV, Down: fold change <0.667, p<0.01, customized PA call=1; for Number of gene probes with statistically significant changes (sDEGs), LV, Up: fold change >1.5, p<0.01, customized PA call=1; for cluster of strongly responding individual samples in LV (clustering exceptions): key: G1 (interferon signaling); G2 (metabolism of lipids and lipoproteins); G3 (response to stress); G4 (response to wounding); G5 (phosphate-containing compound metabolic process); G6 (phagosome)
[1] = test system: adjuvant-associated biological themes in LV, SP, LN
How it was run: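 Enrichment score S sums −log(p) over consensus themes whose names contain a pre-selected adjuvant-associated term such as "stress" or "cytokine". Consensus requires a theme in all three mice of a group, p<0.05. Themes come from TargetMine analysis of genes with eij/ei(c)>2.0, Fisher's exact test, Holm-Bonferroni-corrected.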

With “K3: B class CpG ODN (ATCGACTCTCGAGCGTTCTC), TLR9 ligand (chemistry not given here)” the “Number of gene probes with statistically significant changes (sDEGs), LV, Down” value (liver (LV); i.d. administration) was 22, the “Number of gene probes with statistically significant changes (sDEGs), LV, Up” value (liver (LV); i.d. administration) was 10 and the “Number of gene probes with statistically significant changes (sDEGs), LV, Down” value (liver (LV); i.p. administration) was 50. The “Number of gene probes with statistically significant changes (sDEGs), LV, Up” value (liver (LV); i.p. administration) was 18, the “cluster of strongly responding individual samples in LV (clustering exceptions)” value (liver (LV); samples D35_ID_x2 and K3_ID_x3 only) was “G2” and the “tissue damage-associated annotations (cell death, wounding) in LNs” value ([1]; LN, i.d., fold change >2) was “did not induce cell death and wounding in LNs”. For the same substance, the “IFN alpha, GO annotation line 1 of 5” value ([1]; LV, ID) was 0, the “IFN alpha, GO annotation line 2 of 5” value ([1]; LV, ID) was 0 and the “IFN alpha: cellular response to interferon-alpha” value ([1]; LV, ID) was 0. The “IFN alpha: positive regulation of interferon-alpha production” value ([1]; LV, ID) was 0, the “IFN alpha: regulation of interferon-alpha production” value ([1]; LV, ID) was 0 and the “IFN beta: cellular response to interferon-beta” value ([1]; LV, ID) was 0. The “IFN beta: interferon-beta production” value ([1]; LV, ID) was 0, the “IFN beta: positive regulation of interferon-beta production” value ([1]; LV, ID) was 0 and the “IFN beta: regulation of interferon-beta production” value ([1]; LV, ID) was 0. The “IFN beta: response to interferon-beta” value ([1]; LV, ID) was 0, the “IFN gamma: cellular response to interferon-gamma” value ([1]; LV, ID) was 0 and the “IFN gamma: interferon-gamma production” value ([1]; LV, ID) was 0. The “IFN gamma: regulation of interferon-gamma production” value ([1]; LV, ID) was 0, the “IFN gamma: response to interferon-gamma” value ([1]; LV, ID) was 0 and the “NF-kappa B signaling pathway, GO annotation line 1 of 4” value ([1]; LV, ID) was 6.19. For the same substance, the “NF-kappa B signaling pathway, GO annotation line 2 of 4” value ([1]; LV, ID) was 0, the “NF-kappa B signaling pathway, GO annotation line 3 of 4” value ([1]; LV, ID) was 0 and the “NF-kappa B signaling pathway, GO annotation line 4 of 4” value ([1]; LV, ID) was 0. For the same substance, the TNF signaling pathway ([1]; LV, ID) was 14.5, the “adaptive immune response, GO annotation line 1 of 5” value ([1]; LV, ID) was 0 and the “adaptive immune response, GO annotation line 2 of 5” value ([1]; LV, ID) was 0. The “adaptive immune response, GO annotation line 3 of 5” value ([1]; LV, ID) was 0, the “adaptive immune response, GO annotation line 4 of 5” value ([1]; LV, ID) was 0 and the “adaptive immune response, GO annotation line 5 of 5” value ([1]; LV, ID) was 0. The “apoptosis, GO annotation line 1 of 8” value ([1]; LV, ID) was 15.7, the “apoptosis, GO annotation line 2 of 8” value ([1]; LV, ID) was 10.1 and the “apoptosis, GO annotation line 3 of 8” value ([1]; LV, ID) was 10.3. The “apoptosis, GO annotation line 4 of 8” value ([1]; LV, ID) was 0, the “apoptosis, GO annotation line 5 of 8” value ([1]; LV, ID) was 5.99 and the “apoptosis, GO annotation line 6 of 8” value ([1]; LV, ID) was 3.19. For the same substance, the “apoptosis, GO annotation line 7 of 8” value ([1]; LV, ID) was 0, the “apoptosis, GO annotation line 8 of 8” value ([1]; LV, ID) was 0 and the “cell death, GO annotation line 1 of 9” value ([1]; LV, ID) was 18.3. The “cell death, GO annotation line 2 of 9” value ([1]; LV, ID) was 13.9, the “cell death, GO annotation line 3 of 9” value ([1]; LV, ID) was 14.9 and the “cell death, GO annotation line 4 of 9” value ([1]; LV, ID) was 10.5. For the same substance, the “cell death, GO annotation line 5 of 9” value ([1]; LV, ID) was 10.9, the “cell death, GO annotation line 6 of 9” value ([1]; LV, ID) was 7.25 and the “cell death, GO annotation line 7 of 9” value ([1]; LV, ID) was 6.67. For the same substance, the “cell death, GO annotation line 8 of 9” value ([1]; LV, ID) was 0, the “cell death, GO annotation line 9 of 9” value ([1]; LV, ID) was 0 and the “chemokine, GO annotation line 1 of 4” value ([1]; LV, ID) was 0. The “chemokine, GO annotation line 2 of 4” value ([1]; LV, ID) was 0, the “chemokine, GO annotation line 3 of 4” value ([1]; LV, ID) was 0 and the “chemokine, GO annotation line 4 of 4” value ([1]; LV, ID) was 0. The “chemotaxis, GO annotation line 1 of 11” value ([1]; LV, ID) was 0, the “chemotaxis, GO annotation line 2 of 11” value ([1]; LV, ID) was 0 and the “chemotaxis, GO annotation line 3 of 11” value ([1]; LV, ID) was 0. The “chemotaxis, GO annotation line 4 of 11” value ([1]; LV, ID) was 0, the “chemotaxis, GO annotation line 5 of 11” value ([1]; LV, ID) was 0 and the “chemotaxis, GO annotation line 6 of 11” value ([1]; LV, ID) was 0. The “chemotaxis, GO annotation line 7 of 11” value ([1]; LV, ID) was 0, the “chemotaxis, GO annotation line 8 of 11” value ([1]; LV, ID) was 0 and the “chemotaxis, GO annotation line 9 of 11” value ([1]; LV, ID) was 0. For the same substance, the “chemotaxis, GO annotation line 10 of 11” value ([1]; LV, ID) was 0, the “chemotaxis, GO annotation line 11 of 11” value ([1]; LV, ID) was 0 and the “cytokine, GO annotation line 1 of 17” value ([1]; LV, ID) was 0. For the same substance, the “cytokine, GO annotation line 2 of 17” value ([1]; LV, ID) was 0, the “cytokine, GO annotation line 3 of 17” value ([1]; LV, ID) was 0 and the “cytokine, GO annotation line 4 of 17” value ([1]; LV, ID) was 0. For the same substance, the “cytokine, GO annotation line 5 of 17” value ([1]; LV, ID) was 0, the “cytokine, GO annotation line 6 of 17” value ([1]; LV, ID) was 0 and the “cytokine, GO annotation line 7 of 17” value ([1]; LV, ID) was 0. The “cytokine, GO annotation line 8 of 17” value ([1]; LV, ID) was 0, the “cytokine, GO annotation line 9 of 17” value ([1]; LV, ID) was 0 and the “cytokine, GO annotation line 10 of 17” value ([1]; LV, ID) was 0. For the same substance, the “cytokine, GO annotation line 11 of 17” value ([1]; LV, ID) was 0, the “cytokine, GO annotation line 12 of 17” value ([1]; LV, ID) was 0 and the “cytokine, GO annotation line 13 of 17” value ([1]; LV, ID) was 0. For the same substance, the “cytokine, GO annotation line 14 of 17” value ([1]; LV, ID) was 0, the “cytokine, GO annotation line 15 of 17” value ([1]; LV, ID) was 0 and the “cytokine, GO annotation line 16 of 17” value ([1]; LV, ID) was 0. For the same substance, the “cytokine, GO annotation line 17 of 17” value ([1]; LV, ID) was 0, the “defense response, GO annotation line 1 of 11” value ([1]; LV, ID) was 0 and the “defense response, GO annotation line 2 of 11” value ([1]; LV, ID) was 0. The “defense response, GO annotation line 3 of 11” value ([1]; LV, ID) was 0, the “defense response, GO annotation line 4 of 11” value ([1]; LV, ID) was 0 and the “defense response, GO annotation line 5 of 11” value ([1]; LV, ID) was 0. The “defense response, GO annotation line 6 of 11” value ([1]; LV, ID) was 0, the “defense response, GO annotation line 7 of 11” value ([1]; LV, ID) was 0 and the “defense response, GO annotation line 8 of 11” value ([1]; LV, ID) was 0. The “defense response, GO annotation line 9 of 11” value ([1]; LV, ID) was 0, the “defense response, GO annotation line 10 of 11” value ([1]; LV, ID) was 0 and the “defense response, GO annotation line 11 of 11” value ([1]; LV, ID) was 0. The “immune response, GO annotation line 1 of 8” value ([1]; LV, ID) was 0, the “immune response, GO annotation line 2 of 8” value ([1]; LV, ID) was 0 and the “immune response, GO annotation line 3 of 8” value ([1]; LV, ID) was 0. For the same substance, the “immune response, GO annotation line 4 of 8” value ([1]; LV, ID) was 0, the “immune response, GO annotation line 5 of 8” value ([1]; LV, ID) was 0 and the “immune response, GO annotation line 6 of 8” value ([1]; LV, ID) was 0. The “immune response, GO annotation line 7 of 8” value ([1]; LV, ID) was 0, the “immune response, GO annotation line 8 of 8” value ([1]; LV, ID) was 0 and the “inflammatory response, GO annotation line 1 of 5” value ([1]; LV, ID) was 0. The “inflammatory response, GO annotation line 2 of 5” value ([1]; LV, ID) was 0, the “inflammatory response, GO annotation line 3 of 5” value ([1]; LV, ID) was 0 and the “inflammatory response, GO annotation line 4 of 5” value ([1]; LV, ID) was 0. The “inflammatory response, GO annotation line 5 of 5” value ([1]; LV, ID) was 0, the “innate immune response, GO annotation line 1 of 6” value ([1]; LV, ID) was 0 and the “innate immune response, GO annotation line 2 of 6” value ([1]; LV, ID) was 0. For the same substance, the “innate immune response, GO annotation line 3 of 6” value ([1]; LV, ID) was 0, the “innate immune response, GO annotation line 4 of 6” value ([1]; LV, ID) was 0 and the “innate immune response, GO annotation line 5 of 6” value ([1]; LV, ID) was 0. For the same substance, the “innate immune response, GO annotation line 6 of 6” value ([1]; LV, ID) was 0, the “interleukin-6: interleukin-6 production” value ([1]; LV, ID) was 0 and the “interleukin-6: positive regulation of interleukin-6 production” value ([1]; LV, ID) was 0. The “interleukin-6: regulation of interleukin-6 production” value ([1]; LV, ID) was 0, the “interleukin-12: interleukin-12 production” value ([1]; LV, ID) was 0 and the “interleukin-12: positive regulation of interleukin-12 production” value ([1]; LV, ID) was 0. The “interleukin-12: regulation of interleukin-12 production” value ([1]; LV, ID) was 0, the “migration, GO annotation line 1 of 10” value ([1]; LV, ID) was 0 and the “migration, GO annotation line 2 of 10” value ([1]; LV, ID) was 0. The “migration, GO annotation line 3 of 10” value ([1]; LV, ID) was 0, the “migration, GO annotation line 4 of 10” value ([1]; LV, ID) was 0 and the “migration, GO annotation line 5 of 10” value ([1]; LV, ID) was 0. The “migration, GO annotation line 6 of 10” value ([1]; LV, ID) was 0, the “migration, GO annotation line 7 of 10” value ([1]; LV, ID) was 0 and the “migration, GO annotation line 8 of 10” value ([1]; LV, ID) was 0. For the same substance, the “migration, GO annotation line 9 of 10” value ([1]; LV, ID) was 0, the “migration, GO annotation line 10 of 10” value ([1]; LV, ID) was 0 and the “stress, GO annotation line 1 of 3” value ([1]; LV, ID) was 12.9. For the same substance, the “stress, GO annotation line 2 of 3” value ([1]; LV, ID) was 0, the “stress, GO annotation line 3 of 3” value ([1]; LV, ID) was 0 and the “wounding, GO annotation line 1 of 3” value ([1]; LV, ID) was 0. The “wounding, GO annotation line 2 of 3” value ([1]; LV, ID) was 0 and the “wounding, GO annotation line 3 of 3” value ([1]; LV, ID) was 0.
